Data taken from US6355785B1, “Guanosine-rich oligonucleotide integrase inhibitors” (Aronex Pharmaceuticals, Inc., priority 1993, dated 2002).
Values joined by “and” are separate entries in the source; they are usually repeats but may differ in a detail not shown here. Equal values may be shown once. Read-outs that look alike come from different tables or passages of the source.

Experiments:
HIV-1 = conditions: 3.0 mg/kg every other day, 14-day treatment, three patients
[1] = test system: HIV-1 strains (SKI, RF, DV, IIIB, ADP/141); experiment: microbe, parasite or virus in culture; assay type: cell-based; conditions: for IC90: read-out: IC90 (cpe assay)

Substance: 5′-gtggtgggtgggtgggt-3′ [T30177] (GTGGTGGGTGGGTGGGT; phosphorothioate termini, further chemistry not given here)
- IC50 virus-induced cytopathogenicity (Tacaribe): >50 µg/mL
- MCC minimum concentration altering normal cell morphology (Tacaribe): >50 μg/mL
- % CD4 (HIV-1 infected PBMCs; IIIB, drug 0.1 μM, day 7): 1%
- % CD8 (HIV-1 infected PBMCs; IIIB, drug 0.1 μM, day 7): 98%
- CD4/CD8 Ratio (HIV-1 infected PBMCs; IIIB, drug 0.1 μM, day 7): 0.01
- % CD4 (HIV-1 infected PBMCs; IIIB, drug 1.0 μM): 18%
- % CD8 (HIV-1 infected PBMCs; IIIB, drug 1.0 μM): 85%
- CD4/CD8 Ratio (HIV-1 infected PBMCs; IIIB, drug 1.0 μM): 0.21
- % CD4 (HIV-1 infected PBMCs; IIIB, drug 5.0 μM): 27%
- % CD8 (HIV-1 infected PBMCs; IIIB, drug 5.0 μM): 83%
- CD4/CD8 Ratio (HIV-1 infected PBMCs; IIIB, drug 5.0 μM): 0.33
- % CD4 (HIV-1 infected PBMCs; IIIB, drug 10.0 μM): 27%
- % CD8 (HIV-1 infected PBMCs; IIIB, drug 10.0 μM): 83%
- CD4/CD8 Ratio (HIV-1 infected PBMCs; IIIB, drug 10.0 μM): 0.33
- % CD4 (HIV-1 infected PBMCs; MN, drug 0.1 μM): 5%
- % CD8 (HIV-1 infected PBMCs; MN, drug 0.1 μM): 95%
- CD4/CD8 Ratio (HIV-1 infected PBMCs; MN, drug 0.1 μM): 0.05
- % CD4 (HIV-1 infected PBMCs; MN, drug 1.0 μM): 18%
- % CD8 (HIV-1 infected PBMCs; MN, drug 1.0 μM): 86%
- CD4/CD8 Ratio (HIV-1 infected PBMCs; MN, drug 1.0 μM): 0.21
- % CD4 (HIV-1 infected PBMCs; MN, drug 5.0 μM): 25%
- % CD8 (HIV-1 infected PBMCs; MN, drug 5.0 μM): 81%
- CD4/CD8 Ratio (HIV-1 infected PBMCs; MN, drug 5.0 μM): 0.31
- % CD4 (HIV-1 infected PBMCs; MN, drug 10.0 μM): 26%
- % CD8 (HIV-1 infected PBMCs; MN, drug 10.0 μM): 80%
- CD4/CD8 Ratio (HIV-1 infected PBMCs; MN, drug 10.0 μM): 0.33
- % CD4 (HIV-1 infected PBMCs; N. Amer. #1, drug 0.1 μM): 21%
- % CD8 (HIV-1 infected PBMCs; N. Amer. #1, drug 0.1 μM): 84%
- CD4/CD8 Ratio (HIV-1 infected PBMCs; N. Amer. #1, drug 0.1 μM): 0.25
- % CD4 (HIV-1 infected PBMCs; N. Amer. #1, drug 1.0 μM): 26%
- % CD8 (HIV-1 infected PBMCs; N. Amer. #1, drug 1.0 μM): 80%
- CD4/CD8 Ratio (HIV-1 infected PBMCs; N. Amer. #1, drug 1.0 μM): 0.33
- % CD4 (HIV-1 infected PBMCs; N. Amer. #1, drug 5.0 μM): 27%
- % CD8 (HIV-1 infected PBMCs; N. Amer. #1, drug 5.0 μM): 81%
- CD4/CD8 Ratio (HIV-1 infected PBMCs; N. Amer. #1, drug 5.0 μM): 0.33
- % CD4 (HIV-1 infected PBMCs; N. Amer. #1, drug 10.0 μM): 29%
- % CD8 (HIV-1 infected PBMCs; N. Amer. #1, drug 10.0 μM): 81%
- CD4/CD8 Ratio (HIV-1 infected PBMCs; N. Amer. #1, drug 10.0 μM): 0.36
- % CD4 (HIV-1 infected PBMCs; N. Amer. #2, drug 0.1 μM): 4%
- % CD8 (HIV-1 infected PBMCs; N. Amer. #2, drug 0.1 μM): 98%
- CD4/CD8 Ratio (HIV-1 infected PBMCs; N. Amer. #2, drug 0.1 μM): 0.04
- % CD4 (HIV-1 infected PBMCs; N. Amer. #2, drug 1.0 μM): 5%
- % CD8 (HIV-1 infected PBMCs; N. Amer. #2, drug 1.0 μM): 95%
- CD4/CD8 Ratio (HIV-1 infected PBMCs; N. Amer. #2, drug 1.0 μM): 0.05
- % CD4 (HIV-1 infected PBMCs; N. Amer. #2, drug 5.0 μM): 28%
- % CD8 (HIV-1 infected PBMCs; N. Amer. #2, drug 5.0 μM): 82%
- CD4/CD8 Ratio (HIV-1 infected PBMCs; N. Amer. #2, drug 5.0 μM): 0.34
- % CD4 (HIV-1 infected PBMCs; N. Amer. #2, drug 10.0 μM): 27%
- % CD8 (HIV-1 infected PBMCs; N. Amer. #2, drug 10.0 μM): 84%
- CD4/CD8 Ratio (HIV-1 infected PBMCs; N. Amer. #2, drug 10.0 μM): 0.32
- % CD4 (HIV-1 infected PBMCs; RF, drug 0.1 μM): 10%
- % CD8 (HIV-1 infected PBMCs; RF, drug 0.1 μM): 92%
- CD4/CD8 Ratio (HIV-1 infected PBMCs; RF, drug 0.1 μM): 0.11
- % CD4 (HIV-1 infected PBMCs; RF, drug 1.0 μM): 26%
- % CD8 (HIV-1 infected PBMCs; RF, drug 1.0 μM): 82%
- CD4/CD8 Ratio (HIV-1 infected PBMCs; RF, drug 1.0 μM): 0.32
- % CD4 (HIV-1 infected PBMCs; RF, drug 5.0 μM): 31%
- % CD8 (HIV-1 infected PBMCs; RF, drug 5.0 μM): 83%
- CD4/CD8 Ratio (HIV-1 infected PBMCs; RF, drug 5.0 μM): 0.37
- % CD4 (HIV-1 infected PBMCs; RF, drug 10.0 μM): 29%
- % CD8 (HIV-1 infected PBMCs; RF, drug 10.0 μM): 85%
- CD4/CD8 Ratio (HIV-1 infected PBMCs; RF, drug 10.0 μM): 0.34
- % CD4 (HIV-1 infected PBMCs; SE Asia isolate, drug 0.1 μM): 2%
- % CD8 (HIV-1 infected PBMCs; SE Asia isolate, drug 0.1 μM): 99%
- CD4/CD8 Ratio (HIV-1 infected PBMCs; SE Asia isolate, drug 0.1 μM): 0.02
- % CD4 (HIV-1 infected PBMCs; SE Asia isolate, drug 1.0 μM): 12%
- % CD8 (HIV-1 infected PBMCs; SE Asia isolate, drug 1.0 μM): 90%
- CD4/CD8 Ratio (HIV-1 infected PBMCs; SE Asia isolate, drug 1.0 μM): 0.13
- % CD4 (HIV-1 infected PBMCs; SE Asia isolate, drug 5.0 μM): 29%
- % CD8 (HIV-1 infected PBMCs; SE Asia isolate, drug 5.0 μM): 82%
- CD4/CD8 Ratio (HIV-1 infected PBMCs; SE Asia isolate, drug 5.0 μM): 0.35
- % CD4 (HIV-1 infected PBMCs; SE Asia isolate, drug 10.0 μM): 29%
- % CD8 (HIV-1 infected PBMCs; SE Asia isolate, drug 10.0 μM): 82%
- CD4/CD8 Ratio (HIV-1 infected PBMCs; SE Asia isolate, drug 10.0 μM): 0.35
- IC50 virus-induced cytopathogenicity (Punta Toro virus; Punta Toro virus): >200 µg/mL
- MCC minimum concentration altering normal cell morphology (Punta Toro virus; Punta Toro virus assay): >200 μg/mL
- viral load (plasma HIV-1 RNA) (HIV-1): viral load was significantly reduced
- increase in IC50 when MOI of HIV-1RF changed from 0.01 to 1.28 ([1]; CEM-SS): 14 fold
- IC50 ([1]; HIV-1 DV, SUP T1, read-out: IC50 virus production): 60 ± 4 nM
- IC50 ([1]; HIV-1 IIIB, AA5, read-out: IC50 virus production): < 320 nM
- IC50 ([1]; HIV-1 IIIB, CEM-SS or MT4, read-out: Antiviral Assay IC50 IIIB): 2830 nM
- IC50 ([1]; HIV-1 IIIB, CEM-SS, read-out: IC50 virus production): 2800 nM and 2830 nM
- IC50 ([1]; HIV-1 IIIB, MT2, read-out: IC50 virus production): 1940 ± 120 nM
- IC50 ([1]; HIV-1 IIIB, MT4, read-out: IC50 virus production): 150 ± 20 nM
- TI (therapeutic index) ([1]; HIV-1RF in MT2 cells): 226
- IC50 ([1]; HIV-1 RF, CEM-SS or MT4, read-out: Antiviral Assay IC50 RF): 75 nM
- IC50 ([1]; HIV-1 RF, CEM-SS, MOI 0.01, read-out: IC50 virus production): 75 nM
- IC50 ([1]; HIV-1 RF, MT4, read-out: IC50 virus production): 37 ± 30 nM
- TI (therapeutic index) ([1]; HIV-1SKI in CEM-SS cells): 3680
- IC50 ([1]; HIV-1 SKI, CEM-SS or MT4, read-out: Antiviral Assay IC50 SKI): 25 nM
- IC50 ([1]; HIV-1 SKI, CEM-SS, MOI 0.01, read-out: IC50 virus production): 25 ± 6 nM
- IC50 ([1]; HIV-1 SKI, MT2, read-out: IC50 virus production): 60 ± 1 nM
- IC50 ([1]; IIIB (MT4), MOI 0.01, read-out: IC50 (cpe assay)): 2700 nM
- IC90 ([1]; IIIB (MT4), MOI 0.01): 9.2 µM
- IC50 ([1]; IIIB (MT4), MOI 0.02, read-out: IC50 (cpe assay)): 3100 nM
- IC90 ([1]; IIIB (MT4), MOI 0.02): 6.6 µM
- IC50 ([1]; IIIB (MT4), MOI 0.3, read-out: IC50 (cpe assay)): 3380 nM
- IC90 ([1]; IIIB (MT4), MOI 0.3): 7 µM
- IC50 ([1]; IIIB (MT4), MOI 1, read-out: IC50 (cpe assay)): 6800 nM
- IC90 ([1]; IIIB (MT4), MOI 1): 26 µM
- IC50 ([1]; RF (CEM-SS), MOI 0.01, read-out: IC50 (cpe assay)): 200 nM
- IC90 ([1]; RF (CEM-SS), MOI 0.01): 0.5 µM
- IC50 ([1]; RF (CEM-SS), MOI 0.02, read-out: IC50 (cpe assay)): 410 nM
- IC90 ([1]; RF (CEM-SS), MOI 0.02): 1.5 µM
- IC90 ([1]; RF (CEM-SS), MOI 0.04): 1.56 µM
- IC50 ([1]; RF (CEM-SS), MOI 0.08, read-out: IC50 (cpe assay)): 700 nM
- IC90 ([1]; RF (CEM-SS), MOI 0.08): 1.56 µM
- IC50 ([1]; RF (CEM-SS), MOI 0.16, read-out: IC50 (cpe assay)): 870 nM
- IC90 ([1]; RF (CEM-SS), MOI 0.16): 1.6 µM
- IC50 ([1]; RF (CEM-SS), MOI 0.32, read-out: IC50 (cpe assay)): 1250 nM
- IC90 ([1]; RF (CEM-SS), MOI 0.32): 4.7 µM
- IC50 ([1]; RF (CEM-SS), MOI 0.64, read-out: IC50 (cpe assay)): 2640 nM
- IC90 ([1]; RF (CEM-SS), MOI 0.64): 4.75 µM
- IC50 ([1]; RF (CEM-SS), MOI 1.28, read-out: IC50 (cpe assay)): 2810 nM
- IC90 ([1]; RF (CEM-SS), MOI 1.28): 4.77 µM
- IC50 ([1]; anti-HIV-1 virus production, read-out: Cell Culture IC50): 75 nM
- IC50 virus-induced cytopathogenicity (Sindbis virus; Sindbis virus): >200 µg/mL
- MCC minimum concentration altering normal cell morphology (Sindbis virus; Sindbis virus assay): ≧200 μg/mL
